Measurements published in ChEMBL document CHEMBL3784957, “Patterns of biofilm structure and formation kinetics among Acinetobacter baumannii clinical isolates with different antibiotic resistance profiles” (2016).
Converted amounts (≈) assume the structure as drawn.

Key:
Format in all cases: functional
[1] = system: Acinetobacter baumannii; experiment: Antimicrobial activity against Acinetobacter baumannii isolate 30 by broth microdilution assay
[2] = system: Acinetobacter baumannii; experiment: Antimicrobial activity against Acinetobacter baumannii isolate 45 by broth microdilution assay
[3] = system: Acinetobacter baumannii; experiment: Antimicrobial activity against Acinetobacter baumannii isolate 35 by broth microdilution assay
[4] = system: Acinetobacter baumannii; experiment: Antimicrobial activity against Acinetobacter baumannii isolate 38 by broth microdilution assay
[5] = system: Acinetobacter baumannii; experiment: Antimicrobial activity against Acinetobacter baumannii isolate 26 by broth microdilution assay
[6] = system: Acinetobacter baumannii; experiment: Antimicrobial activity against Acinetobacter baumannii isolate 12 by broth microdilution assay
[7] = system: Acinetobacter baumannii; experiment: Antimicrobial activity against Acinetobacter baumannii isolate 15 by broth microdilution assay
[8] = system: Acinetobacter baumannii; experiment: Antimicrobial activity against Acinetobacter baumannii isolate 3 by broth microdilution assay
[9] = system: Acinetobacter baumannii; experiment: Antimicrobial activity against Acinetobacter baumannii isolate 52 by broth microdilution assay
[10] = system: Acinetobacter baumannii; experiment: Antimicrobial activity against Acinetobacter baumannii isolate 20 by broth microdilution assay
[11] = system: Acinetobacter baumannii; experiment: Antimicrobial activity against Acinetobacter baumannii isolate 9 by broth microdilution assay
[12] = system: Acinetobacter baumannii; experiment: Antimicrobial activity against Acinetobacter baumannii isolate 59 by broth microdilution assay

Compound | MIC [1] | MIC [2] | MIC [3] | MIC [4] | MIC [5] | MIC [6] | MIC [7] | MIC [8] | MIC [9] | MIC [10] | MIC [11] | MIC [12]
NCC[C@H](O)C(=O)N[C@@H]1C[C@H](N)[C@@H](O[C@H]2O[C@H](CN)[C@@H](O)[C@H](O)[C@H]2O)[C@H](O)[C@H]1O[C@H]1O[C@H](CO)[C@@H](O)[C@H](N)[C@H]1O [AMIKACIN] | 4 µg/mL (≈ 6.83 µM) | ≤ 2 µg/mL | ≤ 2 µg/mL | ≤ 2 µg/mL | ≤ 2 µg/mL | 8 µg/mL (≈ 13.7 µM) | 16 µg/mL (≈ 27.3 µM) | ≤ 2 µg/mL | ≤ 2 µg/mL | > 32 µg/mL | > 32 µg/mL | ≤ 2 µg/mL
CO/N=C(\C(=O)N[C@@H]1C(=O)N2C(C(=O)[O-])=C(C[N+]3(C)CCCC3)CS[C@H]12)c1csc(N)n1 [CEFEPIME] | 16 µg/mL (≈ 33.3 µM) | 8 µg/mL (≈ 16.6 µM) | 8 µg/mL (≈ 16.6 µM) | 2 µg/mL (≈ 4.16 µM) | 16 µg/mL (≈ 33.3 µM) | 32 µg/mL (≈ 66.6 µM) | > 32 µg/mL | 16 µg/mL (≈ 33.3 µM) | > 32 µg/mL | > 32 µg/mL | 32 µg/mL (≈ 66.6 µM) | 2 µg/mL (≈ 4.16 µM)
CC(C)(O/N=C(\C(=O)N[C@@H]1C(=O)N2C(C(=O)[O-])=C(C[n+]3ccccc3)CS[C@H]12)c1csc(N)n1)C(=O)O [CEFTAZIDIME] | 16 µg/mL (≈ 29.3 µM) | > 32 µg/mL | > 16 µg/mL | 4 µg/mL (≈ 7.32 µM) | > 32 µg/mL | 16 µg/mL (≈ 29.3 µM) | > 32 µg/mL | > 32 µg/mL | > 32 µg/mL | > 32 µg/mL | > 32 µg/mL | 2 µg/mL (≈ 3.66 µM)
O=C(O)c1cn(C2CC2)c2cc(N3CCNCC3)c(F)cc2c1=O [CIPROFLOXACIN] | > 2 µg/mL | > 2 µg/mL | > 2 µg/mL | ≤ 0.25 µg/mL | > 2 µg/mL | > 2 µg/mL | > 2 µg/mL | > 2 µg/mL | > 2 µg/mL | > 2 µg/mL | > 2 µg/mL | ≤ 0.25 µg/mL
C[C@@H](O)[C@H]1C(=O)N2C(C(=O)O)=C(SCCNC=N)C[C@H]12 [IMIPENEM ANHYDROUS] | 2 µg/mL (≈ 6.68 µM) | > 8 µg/mL | > 8 µg/mL | ≤ 1 µg/mL | ≤ 1 µg/mL | > 8 µg/mL | > 8 µg/mL | > 8 µg/mL | > 8 µg/mL | > 8 µg/mL | > 8 µg/mL | ≤ 1 µg/mL
C[C@H]1COc2c(N3CCN(C)CC3)c(F)cc3c(=O)c(C(=O)O)cn1c23.C[C@H]1COc2c(N3CCN(C)CC3)c(F)cc3c(=O)c(C(=O)O)cn1c23.O [LEVOFLOXACIN] | > 4 µg/mL | > 4 µg/mL | > 4 µg/mL | ≤ 0.12 µg/mL | > 4 µg/mL | > 4 µg/mL | > 4 µg/mL | > 4 µg/mL | > 4 µg/mL | > 4 µg/mL | > 4 µg/mL | ≤ 0.12 µg/mL
C[C@@H](O)[C@H]1C(=O)N2C(C(=O)O)=C(S[C@@H]3CN[C@H](C(=O)N(C)C)C3)[C@H](C)[C@H]12 [MEROPENEM] | 2 µg/mL (≈ 5.22 µM) | 8 µg/mL (≈ 20.9 µM) | 8 µg/mL (≈ 20.9 µM) | ≤ 0.25 µg/mL | 1 µg/mL (≈ 2.61 µM) | > 8 µg/mL | > 8 µg/mL | > 8 µg/mL | > 8 µg/mL | > 8 µg/mL | > 8 µg/mL | 1 µg/mL (≈ 2.61 µM)
CN(C)c1ccc(O)c2c1C[C@H]1C[C@H]3[C@H](N(C)C)C(O)=C(C(N)=O)C(=O)[C@@]3(O)C(O)=C1C2=O [MINOCYCLINE] | ≤ 1 µg/mL | 2 µg/mL (≈ 4.37 µM) | ≤ 1 µg/mL | ≤ 1 µg/mL | 2 µg/mL (≈ 4.37 µM) | ≤ 1 µg/mL | ≤ 1 µg/mL | 2 µg/mL (≈ 4.37 µM) | ≤ 1 µg/mL | 8 µg/mL (≈ 17.5 µM) | 8 µg/mL (≈ 17.5 µM) | ≤ 1 µg/mL
CCN1CCN(C(=O)N[C@@H](C(=O)N[C@@H]2C(=O)N3[C@@H]2SC(C)(C)[C@@H]3C(=O)O)c2ccccc2)C(=O)C1=O [PIPERACILLIN] | > 64 µg/mL | > 64 µg/mL | > 64 µg/mL | ≤ 8 µg/mL | > 64 µg/mL | > 64 µg/mL | > 64 µg/mL | > 64 µg/mL | > 64 µg/mL | > 64 µg/mL | > 64 µg/mL | ≤ 8 µg/mL
CC1(C)S[C@@H]2[C@H](NC(=O)[C@H](C(=O)O)c3ccsc3)C(=O)N2[C@H]1C(=O)O [TICARCILLIN] | > 64 µg/mL | > 64 µg/mL | > 64 µg/mL | ≤ 8 µg/mL | 32 µg/mL (≈ 83.2 µM) | 64 µg/mL (≈ 166 µM) | > 64 µg/mL | > 64 µg/mL | > 64 µg/mL | > 64 µg/mL | > 64 µg/mL | ≤ 8 µg/mL
NC[C@H]1O[C@H](O[C@H]2[C@H](O)[C@@H](O[C@H]3O[C@H](CO)[C@@H](O)[C@H](N)[C@H]3O)[C@H](N)C[C@@H]2N)[C@H](N)C[C@@H]1O [TOBRAMYCIN] | 8 µg/mL (≈ 17.1 µM) | 8 µg/mL (≈ 17.1 µM) | > 8 µg/mL | > 8 µg/mL | ≤ 1 µg/mL | > 8 µg/mL | > 8 µg/mL | ≤ 1 µg/mL | ≤ 1 µg/mL | > 8 µg/mL | > 8 µg/mL | ≤ 1 µg/mL
COLISTIN | < 0.5 µg/mL | 8 µg/mL | < 0.5 µg/mL | < 0.5 µg/mL | < 0.5 µg/mL | 16 µg/mL | < 0.5 µg/mL | < 0.5 µg/mL | < 0.5 µg/mL | < 0.5 µg/mL | < 0.5 µg/mL | < 0.5 µg/mL
GENTAMICIN | > 8 µg/mL | > 8 µg/mL | > 8 µg/mL | < 1 µg/mL | < 1 µg/mL | > 8 µg/mL | > 8 µg/mL | < 1 µg/mL | 4 µg/mL | > 8 µg/mL | > 8 µg/mL | < 1 µg/mL
